Reference: patent publication US12281122B1, “PI3K inhibitors” (Cogent Biosciences, Inc., priority 2023, dated 2025)

Assays:
[1] = test system: T47D (PI3Kα-H1047R) cell line; experiment: HTRF phospho-AKT(S473) cell assay in T47D cells; type: cell-based, human; conditions: Homo sapiens, 2 hours compound incubation
Method in brief: (§1)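 Cells plated overnight (T47D in RPMI/10% FBS/0.2 units/mL insulin; SKBR3 in McCoy's 5A/10% FBS), then given 12-point 1:3 compound series (top 5 μM T47D, 10 μM SKBR3; ≤0.5% DMSO) for 2 h at 37° C. SKBR3 stimulated with 70 ng/ml PDGF-BB for final 15 min. Lysate pAKT(S473) by HTRF; IC50 calculated.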

[2] = test system: SKBR3 (PI3Kα-Wild Type) cell line; experiment: HTRF phospho-AKT(S473) cell assay in SKBR3 cells; type: cell-based, human; conditions: Homo sapiens, SK-BR-3, 2 hours compound incubation, PDGF-BB stimulated
Method in brief: as §1

[3] = T47D (PI3Kα-H1047R) cells, HTRF phospho-AKT(S473)
[4] = SKBR3 (PI3Kα-Wild Type) cells, HTRF phospho-AKT(S473)
[5] = HTRF phospho-AKT(S473), T47D (PI3Kα-H1047R) cells
[6] = HTRF phospho-AKT(S473), SKBR3 (PI3Kα-Wild Type) cells

SMILES	IC50 [1, 3] [nM]	IC50 [2, 4] [nM]	IC50 [1, 5] [nM]	IC50 [2, 6] [nM]	other results
Cc1cc([C@@H](C)Nc2ccc(Cl)nc2C(=O)NS(C)(=O)=O)c2nc(N3CCC(n4cc(C)cn4)CC3)n(C)c(=O)c2c1 [Compound 197, (R)-6-chloro-3-((1-(3,6-dimethyl-2-(4-(4-methyl-1H-pyrazol-1-yl)piperidin-1-yl)-4-oxo-3,4-dihydroquinazolin-8-yl)ethyl)amino)-N-(methylsulfonyl) picolinamide]	< 250	1000 to 5000	–	–	–
Cc1cc([C@@H](C)Nc2ccc(Cl)nc2C(=O)NS(C)(=O)=O)c2nc(N3CCC(c4c(F)cnn4C(F)F)CC3)n(C)c(=O)c2c1 [Compound 464, (R)-6-chloro-3-((1-(2-(4-(1-(difluoromethyl)-4-fluoro-1H-pyrazol-5-yl)piperidin-1-yl)-3,6-dimethyl-4-oxo-3,4-dihydroquinazolin-8-yl)ethyl)amino)-N-(methylsulfonyl) picolinamide]	–	–	250 to 500	≥ 5000	–
Cc1cc([C@@H](C)Nc2ccc(Cl)nc2C(=O)NS(C)(=O)=O)c2nc(N3CCC(n4nccc4N(C)C)CC3)n(C)c(=O)c2c1 [Compound 309, (R)-6-chloro-3-((1-(2-(4-(5-(dimethylamino)-1H-pyrazol-1-yl)piperidin-1-yl)-3,6-dimethyl-4-oxo-3,4-dihydroquinazolin-8-yl)ethyl)amino)-N-(methylsulfonyl) picolinamide]	250 to 500	≥ 5000	–	–	–
Cc1cc([C@@H](C)Nc2ccc(Cl)nc2C(=O)NS(C)(=O)=O)c2nc(N3CCN(c4ccnc(C(F)F)n4)CC3)n(C)c(=O)c2c1 [Compound 649, (R)-6-chloro-3-((1-(2-(4-(2-(difluoromethyl)pyrimidin-4-yl)piperazin-1-yl)-3,6-dimethyl-4-oxo-3,4-dihydroquinazolin-8-yl)ethyl)amino)-N-(methylsulfonyl) picolinamide]	–	–	< 250	1000 to 5000	–
Cc1cnc(-c2ccc(-c3nc4c([C@@H](C)Nc5ccc(Cl)nc5C(=O)NS(C)(=O)=O)cc(C)cc4c(=O)n3C)cn2)nc1 [Compound 851, (R)-6-chloro-3-((1-(3,6-dimethyl-2-(6-(5-methylpyrimidin-2-yl)pyridin-3-yl)-4-oxo-3,4-dihydroquinazolin-8-yl)ethyl)amino)-N-(methylsulfonyl) picolinamide]	–	–	–	–	IC50 ([1]; T47D (PI3Kα-H1047R) cell line, phospho-AKT(S473) HTRF): 250 to 500 nM; IC50 ([2]; SKBR3 (PI3Kα-Wild Type) cell line, phospho-AKT(S473) HTRF): 1000 to 5000 nM
[2H]C([2H])([2H])n1ccc([C@H]2[C@@H]3CN(c4nc5c([C@@H](C)Nc6ccc(Cl)nc6C(=O)NS(C)(=O)=O)cc(C)cc5c(=O)n4C4CC4)C[C@@H]32)n1 [Compound 734, 6-chloro-3-(((R)-1-(3-cyclopropyl-6-methyl-2-((1R,5S,6R)-6-(1-(methyl-d3)-1H-pyrazol-3-yl)-3-azabicyclo[3.1.0]hexan-3-yl)-4-oxo-3,4-dihydroquinazolin-8-yl)ethyl)amino)-N-(methylsulfonyl) picolinamide]	–	–	250 to 500	1000 to 5000	–
Cc1cc([C@@H](C)Nc2ccc(Cl)nc2C(=O)NS(C)(=O)=O)c2nc(N3C[C@@H]4[C@H](C3)[C@H]4c3cnc(C)nc3C)n(C)c(=O)c2c1 [Compound 578, 6-chloro-3-(((R)-1-(2-((1R,5S,6S)-6-(2,4-dimethylpyrimidin-5-yl)-3-azabicyclo[3.1.0]hexan-3-yl)-3,6-dimethyl-4-oxo-3,4-dihydroquinazolin-8-yl)ethyl)amino)-N-(methylsulfonyl) picolinamide]	–	–	< 250	1000 to 5000	–
Cc1cc([C@@H](C)Nc2ccc(Cl)nc2C(=O)NS(C)(=O)=O)c2nc(N3C[C@@H]4[C@H](C3)[C@H]4c3c(F)cnn3C3CC3)n(C)c(=O)c2c1 [Compound 570, 6-chloro-3-(((R)-1-(2-((1R,5S,6R)-6-(1-cyclopropyl-4-fluoro-1H-pyrazol-5-yl)-3-azabicyclo[3.1.0]hexan-3-yl)-3,6-dimethyl-4-oxo-3,4-dihydroquinazolin-8-yl)ethyl)amino)-N-(methylsulfonyl) picolinamide]	–	–	< 250	≥ 5000	–
Cc1cc([C@@H](C)Nc2ccc(Cl)nc2C(=O)NS(C)(=O)=O)c2nc(-c3ccccc3)n(C)c(=O)c2c1 [Compound 813, (R)-6-chloro-3-((1-(3,6-dimethyl-4-oxo-2-phenyl-3,4-dihydroquinazolin-8-yl)ethyl)amino)-N-(methylsulfonyl) picolinamide]	–	–	250 to 500	≥ 5000	–
Cc1cc([C@@H](C)Nc2ccc(Cl)nc2C(=O)NS(C)(=O)=O)c2nc(N3CCN(c4cnc(C)cn4)CC3)n(C)c(=O)c2c1 [Compound 369, (R)-6-chloro-3-((1-(3,6-dimethyl-2-(4-(5-methylpyrazin-2-yl)piperazin-1-yl)-4-oxo-3,4-dihydroquinazolin-8-yl)ethyl)amino)-N-(methylsulfonyl) picolinamide]	< 250	1000 to 5000	–	–	–
Cc1cc([C@@H](C)Nc2ccc(Cl)nc2C(=O)NS(C)(=O)=O)c2nc(N3Cc4cn(-c5ccnc(C)c5)nc4C3)n(C)c(=O)c2c1 [Compound 146, (R)-6-chloro-3-((1-(3,6-dimethyl-2-(2-(2-methylpyridin-4-yl)-2,6-dihydropyrrolo[3,4-c]pyrazol-5(4H)-yl)-4-oxo-3,4-dihydroquinazolin-8-yl)ethyl)amino)-N-(methylsulfonyl) picolinamide]	< 250	1000 to 5000	–	–	–
Cc1cc([C@@H](C)Nc2ccc(Cl)nc2C(=O)NS(C)(=O)=O)c2nc(N3CCC(c4csc(C)n4)CC3)n(C)c(=O)c2c1 [Compound 503, (R)-6-chloro-3-((1-(3,6-dimethyl-2-(4-(2-methylthiazol-4-yl)piperidin-1-yl)-4-oxo-3,4-dihydroquinazolin-8-yl)ethyl)amino)-N-(methylsulfonyl) picolinamide]	–	–	< 250	1000 to 5000	–
Cc1cc([C@@H](C)Nc2ccc(Cl)nc2C(=O)NS(C)(=O)=O)c2nc(N3C[C@@H]4C[C@H]3C[C@@H]4c3ccn(C)n3)n(C)c(=O)c2c1 (relative stereo) [Compound 356, 6-chloro-3-(((R)-1-(3,6-dimethyl-2-((1R*,4S*,5R*)-5-(1-methyl-1H-pyrazol-3-yl)-2-azabicyclo[2.2.1]heptan-2-yl)-4-oxo-3,4-dihydroquinazolin-8-yl)ethyl)amino)-N-(methylsulfonyl) picolinamide]	< 250	1000 to 5000	–	–	–
Cc1cc([C@@H](C)Nc2ccc(Cl)nc2C(=O)NS(C)(=O)=O)c2nc([C@H]3[C@@H]4CN(c5cnc(C)cn5)C[C@@H]43)n(C)c(=O)c2c1 [Compound 811, 6-chloro-3-(((R)-1-(3,6-dimethyl-2-((1R,5S,6r)-3-(5-methylpyrazin-2-yl)-3-azabicyclo[3.1.0]hexan-6-yl)-4-oxo-3,4-dihydroquinazolin-8-yl)ethyl)amino)-N-(methylsulfonyl) picolinamide]	–	–	250 to 500	≥ 5000	–
Cc1cc([C@@H](C)Nc2ccc(Cl)nc2C(=O)NS(C)(=O)=O)c2nc(N3C[C@@H]4C[C@H]3CN4c3ccc(F)cn3)n(C)c(=O)c2c1 [Compound 623, 6-chloro-3-(((R)-1-(2-((1S,4S)-5-(5-fluoropyridin-2-yl)-2,5-diazabicyclo [2.2.1]heptan-2-yl)-3,6-dimethyl-4-oxo-3,4-dihydroquinazolin-8-yl)ethyl)amino)-N-(methylsulfonyl) picolinamide]	–	–	250 to 500	≥ 5000	–
Cc1cc([C@@H](C)Nc2ccc(Cl)nc2C(=O)NS(C)(=O)=O)c2nc(N3CCC(c4cnc(C)c(F)c4)CC3)n(C)c(=O)c2c1 [Compound 422, (R)-6-chloro-3-((1-(2-(4-(5-fluoro-6-methylpyridin-3-yl)piperidin-1-yl)-3,6-dimethyl-4-oxo-3,4-dihydroquinazolin-8-yl)ethyl)amino)-N-(methylsulfonyl) picolinamide]	< 250	1000 to 5000	–	–	–
Cc1cc([C@@H](C)Nc2ccc(Cl)nc2C(=O)NS(C)(=O)=O)c2nc(N3C[C@@H]4[C@H](C3)[C@H]4c3nn(C)cc3Cl)n(C)c(=O)c2c1 [Compound 401, 6-chloro-3-(((R)-1-(2-((1R,5S,6R)-6-(4-chloro-1-methyl-1H-pyrazol-3-yl)-3-azabicyclo[3.1.0]hexan-3-yl)-3,6-dimethyl-4-oxo-3,4-dihydroquinazolin-8-yl)ethyl)amino)-N-(methylsulfonyl) picolinamide]	250 to 500	≥ 5000	–	–	–
Cc1cc([C@@H](C)Nc2ccc(Cl)nc2C(=O)NS(C)(=O)=O)c2nc(N3CCC(c4ccn[nH]4)CC3)n(C)c(=O)c2c1 [Compound 165, (R)-3-((1-(2-(4-(1H-pyrazol-5-yl)piperidin-1-yl)-3,6-dimethyl-4-oxo-3,4-dihydroquinazolin-8-yl)ethyl)amino)-6-chloro-N-(methylsulfonyl) picolinamide]	< 250	1000 to 5000	–	–	–
Cc1cc([C@@H](C)Nc2ccc(Cl)nc2C(=O)NS(C)(=O)=O)c2nc(N3C[C@@H]4[C@H](C3)[C@H]4c3cnccn3)n(C)c(=O)c2c1 [Compound 439, 6-chloro-3-(((R)-1-(3,6-dimethyl-4-oxo-2-((1R,5S,6R)-6-(pyrazin-2-yl)-3-azabicyclo[3.1.0]hexan-3-yl)-3,4-dihydroquinazolin-8-yl)ethyl)amino)-N-(methylsulfonyl) picolinamide]	< 250	1000 to 5000	–	–	–
